In the CheMixHub viscosity set:

Test: xn = mol fraction of the nth substance listed

CCCCCCO + C1CCCCC1
Details	viscosity [mPa·s]
293.15 K, 100 kPa, x2 = 0.0817	4.68
293.15 K, 100 kPa, x2 = 0.1603	4.1
293.15 K, 100 kPa, x2 = 0.2421	3.55
293.15 K, 100 kPa, x2 = 0.3502	2.91
293.15 K, 100 kPa, x2 = 0.4409	2.45
293.15 K, 100 kPa, x2 = 0.5593	1.94
293.15 K, 100 kPa, x2 = 0.6517	1.64
293.15 K, 100 kPa, x2 = 0.7396	1.4
293.15 K, 100 kPa, x2 = 0.8512	1.18
293.15 K, 100 kPa, x2 = 0.9402	1.05
303 K, 101.33 kPa, x1 = 0.1	0.8842
303 K, 101.33 kPa, x1 = 0.2008	1.003
303 K, 101.33 kPa, x1 = 0.2997	1.155
303 K, 101.33 kPa, x1 = 0.4002	1.329
303 K, 101.33 kPa, x1 = 0.4994	1.58
303 K, 101.33 kPa, x1 = 0.6004	1.919
303 K, 101.33 kPa, x1 = 0.6986	2.266
303 K, 101.33 kPa, x1 = 0.8004	2.705
303 K, 101.33 kPa, x1 = 0.8991	3.173
303.15 K, 100 kPa, x2 = 0.0817	3.47
303.15 K, 100 kPa, x2 = 0.1603	3.06
303.15 K, 100 kPa, x2 = 0.2421	2.68
303.15 K, 100 kPa, x2 = 0.3502	2.23
303.15 K, 100 kPa, x2 = 0.4409	1.91
303.15 K, 100 kPa, x2 = 0.5593	1.56
303.15 K, 100 kPa, x2 = 0.6517	1.34
303.15 K, 100 kPa, x2 = 0.7396	1.14
303.15 K, 100 kPa, x2 = 0.8512	0.96
303.15 K, 100 kPa, x2 = 0.9402	0.86
303.15 K, 101 kPa, x1 = 0.6491	1.907
303.15 K, 101.33 kPa, x1 = 0.1085	0.9365
303.15 K, 101.33 kPa, x1 = 0.2023	1.058
303.15 K, 101.33 kPa, x1 = 0.3065	1.225
303.15 K, 101.33 kPa, x1 = 0.3939	1.392
303.15 K, 101.33 kPa, x1 = 0.5019	1.641
303.15 K, 101.33 kPa, x1 = 0.6052	1.93
303.15 K, 101.33 kPa, x1 = 0.701	2.255
303.15 K, 101.33 kPa, x1 = 0.7991	2.649
303.15 K, 101.33 kPa, x1 = 0.8894	3.088
308.15 K, 101 kPa, x1 = 0.6491	1.701
313 K, 101.33 kPa, x1 = 0.1	0.7554
313 K, 101.33 kPa, x1 = 0.2008	0.8505
313 K, 101.33 kPa, x1 = 0.2997	0.9723
313 K, 101.33 kPa, x1 = 0.4002	1.115
313 K, 101.33 kPa, x1 = 0.4994	1.302
313 K, 101.33 kPa, x1 = 0.6004	1.526
313 K, 101.33 kPa, x1 = 0.6986	1.781
313 K, 101.33 kPa, x1 = 0.8004	2.083
313 K, 101.33 kPa, x1 = 0.8991	2.417
313.15 K, 100 kPa, x2 = 0.0817	2.61
313.15 K, 100 kPa, x2 = 0.1603	2.33
313.15 K, 100 kPa, x2 = 0.2421	2.04
313.15 K, 100 kPa, x2 = 0.3502	1.72
313.15 K, 100 kPa, x2 = 0.4409	1.49
313.15 K, 100 kPa, x2 = 0.5593	1.24
313.15 K, 100 kPa, x2 = 0.6517	1.08
313.15 K, 100 kPa, x2 = 0.7396	0.93
313.15 K, 100 kPa, x2 = 0.8512	0.79
313.15 K, 100 kPa, x2 = 0.9402	0.72
313.15 K, 101 kPa, x1 = 0.6491	1.63
323 K, 101.33 kPa, x1 = 0.1	0.65
323 K, 101.33 kPa, x1 = 0.2008	0.7271
323 K, 101.33 kPa, x1 = 0.2997	0.8205
323 K, 101.33 kPa, x1 = 0.4002	0.9237
323 K, 101.33 kPa, x1 = 0.4994	1.061
323 K, 101.33 kPa, x1 = 0.6004	1.239
323 K, 101.33 kPa, x1 = 0.6986	1.433
323 K, 101.33 kPa, x1 = 0.8004	1.658
323 K, 101.33 kPa, x1 = 0.8991	1.896
323.15 K, 100 kPa, x2 = 0.0817	2.02
323.15 K, 100 kPa, x2 = 0.1603	1.8
323.15 K, 100 kPa, x2 = 0.2421	1.6
323.15 K, 100 kPa, x2 = 0.3502	1.36
323.15 K, 100 kPa, x2 = 0.4409	1.19
323.15 K, 100 kPa, x2 = 0.5593	1
323.15 K, 100 kPa, x2 = 0.6517	0.87
323.15 K, 100 kPa, x2 = 0.7396	0.77
323.15 K, 100 kPa, x2 = 0.8512	0.67
323.15 K, 100 kPa, x2 = 0.9402	0.61

O=C1CCCCC1 + C1CCCCC1
Details	viscosity [mPa·s]
298.15 K, 101.3 kPa, x2 = 0.4895	1.275
303.15 K, 101 kPa, x2 = 0.1065	1.596
303.15 K, 101 kPa, x2 = 0.2078	1.451
303.15 K, 101 kPa, x2 = 0.3013	1.32
303.15 K, 101 kPa, x2 = 0.3971	1.214
303.15 K, 101 kPa, x2 = 0.5022	1.102
303.15 K, 101 kPa, x2 = 0.604	1.027
303.15 K, 101 kPa, x2 = 0.7024	0.9614
303.15 K, 101 kPa, x2 = 0.8086	0.8788
303.15 K, 101 kPa, x2 = 0.8742	0.8504
303.15 K, 101 kPa, x2 = 0.9034	0.8387

CC(C)CC(C)(C)C + C1COCCO1
viscosity [mPa·s], 101 kPa
Details	x2 = 0.1085	x2 = 0.2061	x2 = 0.2943	x2 = 0.3746	x2 = 0.515	x2 = 0.6337	x2 = 0.6865	x2 = 0.8237	x2 = 0.9008
293.15 K	0.5237	0.5426	0.5664	0.5961	0.6613	0.7446	0.7922	0.9589	1.083
298.15 K	0.4947	0.5119	0.5334	0.561	0.6252	0.6968	0.7388	0.885	0.9979
303.15 K	0.4683	0.4835	0.5036	0.5289	0.5825	0.6529	0.6909	0.8248	0.9282
308.15 K	0.4438	0.4578	0.4761	0.4992	0.5485	0.6141	0.6485	0.7634	0.857
313.15 K	0.4211	0.4352	0.4507	0.4727	0.5181	0.5788	0.6082	0.7242	0.7993

O=C1CCCCC1 + C1COCCO1
viscosity [mPa·s], 101 kPa
Details	x1 = 0.099	x1 = 0.2022	x1 = 0.31	x1 = 0.4227	x1 = 0.5406	x1 = 0.6641	x1 = 0.728	x1 = 0.8607	x1 = 0.9295
293.15 K	1.323	1.352	1.396	1.463	1.56	1.694	1.782	2.003	2.148
298.15 K	1.214	1.239	1.281	1.341	1.429	1.544	1.626	1.816	1.941
303.15 K	1.12	1.142	1.184	1.235	1.324	1.417	1.489	1.657	1.769
308.15 K	1.036	1.06	1.094	1.145	1.224	1.315	1.373	1.513	1.618
313.15 K	0.9598	0.9803	1.017	1.063	1.143	1.212	1.263	1.39	1.497

CCOCC + C=C(C)C(=O)OC
298.15 K, 101.3 kPa
Details	viscosity [mPa·s]
x2 = 0.0454	0.249
x2 = 0.1483	0.281
x2 = 0.249	0.314
x2 = 0.3495	0.349
x2 = 0.4486	0.385
x2 = 0.4908	0.4
x2 = 0.5479	0.421
x2 = 0.6504	0.459
x2 = 0.7501	0.496
x2 = 0.8488	0.532
x2 = 0.947	0.567

C=C(C)[C@@H]1CC=C(C)CC1 + C=CC(C)(O)CCC=C(C)C
viscosity [mPa·s], 101.33 kPa
Details	x1 = 0.0422	x1 = 0.1332	x1 = 0.2273	x1 = 0.3523	x1 = 0.4816	x1 = 0.562	x1 = 0.6389	x1 = 0.7679	x1 = 0.8478	x1 = 0.9236
298.15 K	4.062	3.237	2.695	2.072	1.626	1.429	1.282	1.101	1.013	0.933
313.15 K	2.37	2.025	1.731	1.427	1.196	1.086	0.998	0.877	0.814	0.755

C=C(C)[C@@H]1CC=C(C)CC1 + CC12CCC(CC1)C(C)(C)O2
viscosity [mPa·s], 101.33 kPa
Details	298.15 K	313.15 K
x1 = 0.0715	2.345	1.741
x1 = 0.1121	2.23	1.664
x1 = 0.2018	1.995	1.504
x1 = 0.327	1.704	1.305
x1 = 0.4614	1.439	1.123
x1 = 0.5584	1.279	1.011
x1 = 0.6401	1.162	0.929
x1 = 0.7336	1.05	0.851
x1 = 0.8226	0.963	0.785
x1 = 0.8648	0.928	0.759
x1 = 0.9499	0.872	0.716

CCCCCCO + CC#N
viscosity [mPa·s], 101 kPa
Details	298.15 K	303.15 K	308.15 K
x2 = 0.1095	3.187	2.576	2.165
x2 = 0.2173	2.358	2.078	1.839
x2 = 0.2885	1.966	1.831	1.573
x2 = 0.3844	1.55	1.386	1.233
x2 = 0.5121	1.109	1.004	0.913
x2 = 0.627	0.84	0.766	0.704
x2 = 0.7147	0.676	0.611	0.57
x2 = 0.7903	0.545	0.513	0.483
x2 = 0.8533	0.47	0.445	0.419
x2 = 0.9086	0.415	0.395	0.376
x2 = 0.9558	0.377	0.36	0.343

O=C1CCCCC1 + CC(=O)N(C)C
viscosity [mPa·s], 101 kPa
Details	298.15 K	308.15 K	318.15 K
x1 = 0.1	1.024	0.873	0.75
x1 = 0.2001	1.095	0.907	0.76
x1 = 0.3001	1.182	0.956	0.782
x1 = 0.4001	1.28	1.018	0.823
x1 = 0.45	1.334	1.058	0.849
x1 = 0.4999	1.391	1.099	0.882
x1 = 0.5501	1.454	1.147	0.922
x1 = 0.5991	1.518	1.196	0.962
x1 = 0.7015	1.66	1.322	1.071
x1 = 0.7499	1.731	1.387	1.134
x1 = 0.7984	1.805	1.454	1.199
x1 = 0.8997	1.969	1.615	1.348

CCOCC + CC(=O)O
viscosity [mPa·s], 101 kPa
Details	x2 = 0.124	x2 = 0.2575	x2 = 0.5649	x2 = 0.6393	x2 = 0.749	x2 = 0.9116
293.15 K	0.3184	0.3737	0.5451	0.6641	–	1.048
303.15 K	0.2837	0.3354	0.483	0.5903	0.7376	0.8999
313.15 K	–	0.3088	–	0.5215	0.6621	0.791
323.15 K	–	–	0.3937	0.4665	0.5877	0.6835
